Marks after values point to notes of the source that are not given here. One block for each compound: values may come before it.
Columns and labels:
Type in all cases: biochemical
[1] = ABTS free radical scavenging assay
Experimental: (§1) Two distinct antioxidant assays were performed to evaluate the radical scavenging potential of the ethyl acetate fraction obtained from dried P. guajava leaves collected in March and August. […] Ascorbic acid served as the reference standard.

[2] = DPPH free radical scavenging assay
Experimental: as §1

[3] = biological target: T1, 5-LOX enzyme (human recombinant) (Homo sapiens, UniProt P09917); assay: 5-LOX enzyme inhibition assay (5-LOX kit)
T1 construct: purchased Sigma-Aldrich
T1 sequence (P09917 1-674): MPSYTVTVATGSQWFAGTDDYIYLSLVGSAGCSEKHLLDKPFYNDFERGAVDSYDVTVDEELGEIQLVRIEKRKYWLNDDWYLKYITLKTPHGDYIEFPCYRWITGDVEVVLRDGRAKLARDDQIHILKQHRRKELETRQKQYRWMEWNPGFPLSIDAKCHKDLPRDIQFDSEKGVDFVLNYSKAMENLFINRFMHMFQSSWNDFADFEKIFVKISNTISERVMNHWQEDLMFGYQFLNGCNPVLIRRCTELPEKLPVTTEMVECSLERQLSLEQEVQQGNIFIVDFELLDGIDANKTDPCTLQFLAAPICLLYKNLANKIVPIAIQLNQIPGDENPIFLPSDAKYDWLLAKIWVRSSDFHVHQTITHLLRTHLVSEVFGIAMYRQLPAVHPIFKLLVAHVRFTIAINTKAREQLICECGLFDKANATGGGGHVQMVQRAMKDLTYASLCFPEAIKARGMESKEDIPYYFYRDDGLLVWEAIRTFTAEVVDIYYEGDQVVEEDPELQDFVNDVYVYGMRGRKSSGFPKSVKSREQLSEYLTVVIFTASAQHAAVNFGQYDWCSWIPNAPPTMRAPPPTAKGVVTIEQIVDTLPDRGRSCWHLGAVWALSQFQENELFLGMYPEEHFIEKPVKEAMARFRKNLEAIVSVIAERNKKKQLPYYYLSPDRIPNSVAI

α-glucosidase = α-glucosidase inhibition (in vitro anti-diabetic activity)
Text: (§2) The anti-diabetic effects of the ethyl acetate fraction from dried P. guajava leaves, collected in March and August, were compared in vitro. This comparison involved measuring the inhibition of carbohydrate hydrolyzing enzymes, including α-amylase, α-glucosidase, and β-galactosidase, as detailed in Naguib et al.[28].

α-amylase = α-amylase inhibition (in vitro anti-diabetic activity)
Text: as §2

β-galactosidase = β-galactosidase inhibition (in vitro anti-diabetic activity)
Text: as §2

SMILES: O=C1O[C@H]([C@@H](O)CO)C(O)=C1O [Ascorbic acid]
ABTS Inhibition percentages (%) ([1]; 10 µg/ml): 76.02 ± 0.11^g %
ABTS Inhibition percentages (%) ([1]; 50 µg/ml): 81.43 ± 0.08^h %
ABTS Inhibition percentages (%) ([1]; 100 µg/ml): 87.26 ± 0.13^i %
DPPH Inhibition percentages (%) ([2]; 10 µg/ml): 73.12 ± 0.15^g %
DPPH Inhibition percentages (%) ([2]; 50 µg/ml): 82.47 ± 0.13^h %
DPPH Inhibition percentages (%) ([2]; 100 µg/ml): 90.52 ± 0.09^i %

inhibition at 1 µg/mL ([3]; 1 µg/ml): 40.62 ± 0.08%
inhibition at 10 µg/mL ([3]; 10 µg/ml): 61.39 ± 0.14%
inhibition at 100 µg/mL ([3]; 100 µg/ml): 79.42 ± 0.13%
SMILES: CC(c1cc2ccccc2s1)N(O)C(N)=O (stereo not drawn) [Zileuton]

SMILES: C[C@H]1O[C@H](O[C@H]2[C@H](O)[C@@H](O)[C@@H](O[C@H]3[C@H](O)[C@@H](O)C(O)O[C@@H]3CO)O[C@@H]2CO)[C@H](O)[C@@H](O)[C@@H]1N[C@H]1C=C(CO)[C@@H](O)[C@H](O)[C@H]1O (stereo partly drawn) [Acarbose]
α-glucosidase Inhibition % (α-glucosidase; 10 µg/mL): 41.89 ± 0.10^c %
α-glucosidase Inhibition % (α-glucosidase; 50 µg/mL): 80.36 ± 0.08^d %
α-glucosidase Inhibition % (α-glucosidase; 100 µg/mL): 89.57 ± 0.15^f %
α-amylase Inhibition % (α-amylase; 10 µg/mL): 38.57 ± 0.17^e %
α-amylase Inhibition % (α-amylase; 50 µg/mL): 79.54 ± 0.12^d %
α-amylase Inhibition % (α-amylase; 100 µg/mL): 86.31 ± 0.09^f %
β-galactosidase Inhibition % (β-galactosidase; 10 µg/mL): 43.78 ± 0.12^e %
β-galactosidase Inhibition % (β-galactosidase; 50 µg/mL): 83.72 ± 0.09^f %
β-galactosidase Inhibition % (β-galactosidase; 100 µg/mL): 91.40 ± 0.10^g %

Source: publication PMC12267702, “Harvest time and soil-plant relationship effects on phytochemical constituency and biological activities of psidium guajava L. leaves” (Scientific Reports, 2025)
